Assay results as given in patent EP2198709A1, “Method for treating resistant animal pests” (Bayer CropScience AG, priority 2008, dated 2010).

Legend:
Assay type in all cases: in vivo
Bemisia tabaci ESP-00 [1] = assay: Leaf-dip bioassay, adult whiteflies, multi-resistant strain ESP-00; details: adults; for ESP-00 LC50: multi-resistant strain ESP-00, mortality after 72 h
Text: (§1) Es wurden Versuche durchgeführt, um die überlegene Blattwirkung von Enaminocarbonylverbindungen gegen adulte Tiere eines Stamms von Bemisia tabaci zu zeigen, der bekanntermaßen resistent ist gegen Neonikotinoid-Insektizide sowie andere Insektizidklassen, einschließlich Insekten-Wachstumsregulatoren (wie Buprofezin) und Antifeedants (Substanzen, die einen Schaderreger vom Fraß abhalten) (wie Pymetrozin).
(§2) Baumwollblattscheiben (30 mm im Durchmesser) wurden für 5 sec in wässrige Lösungen technischer Insektizide, enthaltend 0,2 g/l Triton-X-100 als nicht-ionisches Benetzungsmittel, getaucht. Luftgetrocknete Blattscheiben wurden dann mit der adaxialen Seite nach unten auf ein Agarbett (12 g/l) in einer kleinen Petrischale (40 mm im Durchmesser) gelegt. Adulte Weiße Fliegen wurden mittels eines Vakuum-getriebenen Aspirators aus Aufzuchtkäfigen eingesammelt und 20 adulte Tiere wurden nach kurzer CO2-Narkose auf die Blattscheiben gelegt. Anschließend wurde jede Petrischale mit einem belüfteten Deckel verschlossen und umgedreht aufbewahrt. Nach 72 h wurde die Mortalität der Weißen Fliegen bestimmt. Jedes Insektizid wurde mindestens dreifach mit 2-oder 3-fach Bestimmungen pro Konzentration getestet.
(§3) LC50-Werte wurden aus Probit-Regressionen unter Verwendung des Computerprogramms POLO-PC 2 (LeOra Software, Berkeley, USA) berechnet.
(§4) Tabelle 1. Log-Dosis Probit Mortalitätsdaten für verschiedene Klassen von Insektiziden erhalten aus Blatt-Tauch-Bioassays gegen adulte Tiere zweier Bemisia tabaci Stämme, SUD-S und ESP-00, die bekanntermaßen Insektizid-empfindlich (SUD-S) bzw. multiresistent (ESP-00) sind (Stumpf und Nauen, 2003). Mortalität wurde nach 72 h bestimmt, mit Ausnahme von Buprofezin (10-12 d).

Bemisia tabaci SUD-S [2] = assay: Leaf-dip bioassay, 2nd-instar nymphs, insecticide-susceptible strain SUD-S; details: nymphs in 2nd stage, mortality 10-12 d
Description: Larvale Tauch-Bioassays wurden mit geringfügigen Änderungen gemäß Elbert und Nauen (1996) durchgeführt. Die echten Blätter einer drei Wochen alten Baumwollpflanze wurden alle außer einem entfernt. Das verbleibende Blatt wurde auf eine Größe von ca. 15-20 cm^2 zurechtgeschnitten. Die Pflanzen wurden ohne Verwendung von Clip-Käfigen mit adulten Weißen Fliegen infiziert (ca. 20-30 adulte Tiere pro Blatt für 6-7 h). Die Weißen Fliegen wurden dann entfernt und zum geeigneten Zeitpunkt (gewöhnlich nach 10-12 d wenn die Nymphen im zweiten Stadium vorherrschten) wurden die infizierten Blätter für 5 sec in serielle wässrige Insektizidlösungen (s.o.) getaucht. […] Jedes Insektizid wurde mindestens dreifach mit 2- oder 3-fach Bestimmungen pro Konzentration getestet.
as §3, §4

Bemisia tabaci ESP-00 [3] = assay: Leaf-dip bioassay, 2nd-instar nymphs, multi-resistant strain ESP-00
Description: Larvale Tauch-Bioassays wurden mit geringfügigen Änderungen gemäß Elbert und Nauen (1996) durchgeführt. Die echten Blätter einer drei Wochen alten Baumwollpflanze wurden alle außer einem entfernt. Das verbleibende Blatt wurde auf eine Größe von ca. 15-20 cm^2 zurechtgeschnitten. Die Pflanzen wurden ohne Verwendung von Clip-Käfigen mit adulten Weißen Fliegen infiziert (ca. 20-30 adulte Tiere pro Blatt für 6-7 h). Die Weißen Fliegen wurden dann entfernt und zum geeigneten Zeitpunkt (gewöhnlich nach 10-12 d wenn die Nymphen im zweiten Stadium vorherrschten) wurden die infizierten Blätter für 5 sec in serielle wässrige Insektizidlösungen (s.o.) getaucht. Die prozentuale Mortalität wurde an Tag 21-23 bei ca. 24 °C gemessen, sobald alle Überlebenden die Puppenstadien durchschritten hatten. Jedes Insektizid wurde mindestens dreifach mit 2- oder 3-fach Bestimmungen pro Konzentration getestet.
as §3, §4

Bemisia tabaci SUD-S [4] = assay: Leaf-dip bioassay, adult whiteflies, insecticide-susceptible strain SUD-S; details: adults, mortality after 72 h
Text: as §1, §2, §3, §4

Row | SMILES | akute Kurzzeiteffekte gegen adulte Tiere von B. tabaci (Bemisia tabaci ESP-00 [1]; strain not specified, result in words) | SUD-S LC50 (Bemisia tabaci SUD-S [2]) [ppm] | Kreuzresistenz von Nymphen im zweiten Stadium des Stamms ESP-00 (Bemisia tabaci ESP-00 [3]; 2nd-stage nymphs, result in words) | ESP-00 LC50 (Bemisia tabaci ESP-00 [3]; nymphs in 2nd stage, multi-resistant strain ESP-00, mortality 10-12 d) [ppm] | SUD-S LC50 (Bemisia tabaci SUD-S [4]) [ppm] | ESP-00 LC50 (Bemisia tabaci ESP-00 [1]) [ppm] | Resistenz / Kreuz-resistenz von adulten B. tabaci Tieren des Stamms ESP-00 im Vergleich zu SUD-S (Bemisia tabaci ESP-00 [1]; leaf-dip, result in words)
1 | CC(C)N1C(=O)N(c2ccccc2)CS/C1=N\C(C)(C)C [Buprofezin] | keine akuten Kurzzeiteffekte | 0.27 | starke Kreuzresistenz | 260 |  |  | 
2 | CN/C(=N/CC1CCOC1)N[N+](=O)[O-] (centres unmarked) [Dinotefuran] |  |  |  |  | 0.17 | 9.8 | 
3 | CC1=NNC(=O)N(/N=C/c2cccnc2)C1 [Pymetrozin] |  |  |  |  | 0.49 | 360 | starke Resistenz
4 | CN1COCN(Cc2cnc(Cl)s2)/C1=N\[N+](=O)[O-] [Thiamethoxam] |  |  |  |  | 1.1 | 76 | 
